Measurements reported in patent US10316035B2, “Triazolopyridine inhibitors of myeloperoxidase” (BRISTOL-MYERS SQUIBB COMPANY, priority 2015, dated 2019).

Biological target: T1, myeloperoxidase (MPO) (Homo sapiens, UniProt P05164)
T1 sequence (P05164 49-745): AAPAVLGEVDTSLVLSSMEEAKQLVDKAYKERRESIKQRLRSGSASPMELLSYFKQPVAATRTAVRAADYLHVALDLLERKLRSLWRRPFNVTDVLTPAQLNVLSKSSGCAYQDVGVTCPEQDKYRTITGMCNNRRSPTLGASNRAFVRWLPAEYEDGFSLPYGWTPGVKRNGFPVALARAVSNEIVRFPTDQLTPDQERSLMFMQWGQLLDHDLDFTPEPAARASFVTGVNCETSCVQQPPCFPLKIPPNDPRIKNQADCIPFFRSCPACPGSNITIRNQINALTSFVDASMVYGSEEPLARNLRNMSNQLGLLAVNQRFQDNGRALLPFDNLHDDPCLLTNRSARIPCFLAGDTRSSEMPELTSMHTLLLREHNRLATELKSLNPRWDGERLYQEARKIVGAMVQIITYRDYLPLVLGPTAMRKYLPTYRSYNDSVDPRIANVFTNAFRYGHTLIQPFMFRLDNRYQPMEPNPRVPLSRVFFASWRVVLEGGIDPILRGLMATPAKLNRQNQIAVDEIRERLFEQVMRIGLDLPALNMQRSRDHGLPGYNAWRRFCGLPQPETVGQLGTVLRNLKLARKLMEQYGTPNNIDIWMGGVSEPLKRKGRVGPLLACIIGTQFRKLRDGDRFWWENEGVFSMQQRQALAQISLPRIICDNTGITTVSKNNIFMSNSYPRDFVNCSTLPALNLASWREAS
Test: MPO peroxidation assay (Amplex Red assay)
Format: biochemical
Settings: not given
In short: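 Peroxidase turnover of Amplex Red to fluorescent resorufin (Ex 535/Em 590 nm) was followed for 15 min in 100 mM KPi, pH 7.4, after 10 min room-temperature preincubation of compound with 200 pM enzyme plus 40 nM H2O2. The substrate mix contained 200 μM Amplex Red and 10 mM H2O2. IC50s came from linear-phase rates (180–540 s) fitted with a Hill equation.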

| IC50 | Structure (SMILES) |
| --- | --- |
| 0.101 to 0.999 µM | Nc1cc(OCc2ccccc2-n2cccn2)c2nn[nH]c2n1 [Example 255, 7-((2-(1H-Pyrazol-1-yl)benzyl)oxy)-3H-[1,2,3]triazolo[4,5-b]pyridin-5-amine] |
| 0.001 to 0.1 µM | Cc1c(COc2cc(N)nc3[nH]nnc23)cccc1-c1cccc(F)c1 [Example 68, 7-((3′-Fluoro-2-methylbiphenyl-3-yl)methoxy)-3H-[1,2,3]triazolo[4,5-b]pyridin-5-amine] |
| 0.001 to 0.1 µM | Cc1c(COc2cc(N)nc3[nH]nnc23)cccc1-c1ccn(C)n1 [Example 81, 7-(2-Methyl-3-(1-methyl-1H-pyrazol-3-yl)benzyloxy)-3H-[1,2,3]triazolo[4,5-b]pyridin-5-amine] |

Same assay, conditions: MPO peroxidation, potency range class; read-out: Amplex Red IC50

| Structure (SMILES) | IC50 |
| --- | --- |
| Nc1cc(OCc2ccc(-n3cnc(CO)c3)cc2OC(F)(F)F)c2nn[nH]c2n1 [Example 265, (1-(4-(((5-amino-3H-[1,2,3]triazolo[4,5-b]pyridin-7-yl)oxy)methyl)-3-(trifluoromethoxy)phenyl)-1H-imidazol-4-yl)methanol] | 0.001 to 0.1 µM |
| Nc1cc(OCc2ccc(-c3ccnc(O)c3)cc2OC(F)(F)F)c2nn[nH]c2n1 [Example 304, 4-(4-(((5-amino-3H-[1,2,3]triazolo[4,5-b]pyridin-7-yl)oxy)methyl)-3-(trifluoromethoxy)phenyl)pyridin-2-ol] | 0.001 to 0.1 µM |
| CS(=O)(=O)c1cc(-n2ccnc2)ccc1COc1cc(N)nc2[nH]nnc12 [Example 280, 7-((4-(1H-imidazol-1-yl)-2-(methylsulfonyl)benzyl)oxy)-3H-[1,2,3]triazolo[4,5-b] pyridin-5-amine] | 0.101 to 0.999 µM |
| CN1CCN(c2ccc(-c3ccc(COc4cc(N)nc5[nH]nnc45)c(OC(F)(F)F)c3)cn2)CC1 [Example 300, 7-((4-(6-(4-methylpiperazin-1-yl)pyridin-3-yl)-2-(trifluoromethoxy)benzyl)oxy)-3H-[1,2,3] triazolo[4,5-b]pyridin-5-amine] | 0.001 to 0.1 µM |
| N#Cc1cc(-c2cnc(N3CCNCC3)nc2)ccc1COc1cc(N)nc2[nH]nnc12 [Example 329, 2-(((5-amino-3H-[1,2,3]triazolo[4,5-b]pyridin-7-yl)oxy)methyl)-5-(2-(piperazin-1-yl)pyrimidin-5-yl)benzonitrile] | 0.001 to 0.1 µM |
| Nc1cc(OCc2ccc(-c3cncc(F)c3)cc2OC(F)(F)F)c2nn[nH]c2n1 [Example 308, 7-((4-(5-fluoropyridin-3-yl)-2-(trifluoromethoxy)benzyl)oxy)-3H-[1,2,3] triazolo[4,5-b]pyridin-5-amine] | 0.001 to 0.1 µM |
| Nc1cc(OCc2cccc(S(=O)(=O)N3CCOCC3)c2)c2nn[nH]c2n1 [Example 4, 7-(3-(Morpholinosulfonyl)benzyloxy)-3H-[1,2,3]triazolo[4,5-b]pyridin-5-amine] | 0.101 to 0.999 µM |
| CN(Cc1ccccc1)C(=O)c1ccc(COc2cc(N)nc3[nH]nnc23)c(Cl)c1 [Example 204, 4-((5-amino-3H-[1,2,3]triazolo[4,5-b]pyridin-7-yloxy)methyl)-N-benzyl-3-chloro-N-methylbenzamide] | 0.001 to 0.1 µM |
| Cc1cc(CNC(=O)c2ccc(COc3cc(N)nc4[nH]nnc34)c(Cl)c2)n(C)n1 [Example 207, 4-((5-amino-3H-[1,2,3]triazolo[4,5-b]pyridin-7-yloxy)methyl)-3-chloro-N-((1,3-dimethyl-1H-pyrazol-5-yl)methyl)benzamide] | 0.001 to 0.1 µM |
| CC(C)Oc1ccc(-c2ccc(COc3cc(N)nc4[nH]nnc34)c(OC(F)(F)F)c2)cn1 [Example 293, 7-((4-(6-isopropoxypyridin-3-yl)-2-(trifluoromethoxy)benzyl)oxy)-3H-[1,2,3] triazolo[4,5-b]pyridin-5-amine] | 0.101 to 0.999 µM |
| Nc1cc(OCc2c(F)ccc(-c3ccc(N4CCNCC4)nc3)c2Cl)c2nn[nH]c2n1 [Example 344, 7-((2-chloro-6-fluoro-3-(6-(piperazin-1-yl)pyridin-3-yl)benzyl)oxy)-3H-[1,2,3]triazolo [4,5-b]pyridin-5-amine] | 0.001 to 0.1 µM |

Further lines, results first:

| IC50 | Structure (SMILES) |
| --- | --- |
| 0.001 to 0.1 µM | Nc1cc(OCc2cc(Cl)ccc2OCC2CCCO2)c2nn[nH]c2n1 (stereo not drawn) [Example 89, 7-(5-Chloro-2-((tetrahydrofuran-2-yl)methoxy)benzyloxy)-3H-[1,2,3]triazolo[4,5-b]pyridin-5-amine] |
| 0.101 to 0.999 µM | Nc1cc(OCc2cc(C(=O)N3CCC[C@@H]3CO)ccc2Cl)c2nn[nH]c2n1 [Example 178, (R)-(3-((5-amino-3H-[1,2,3]triazolo[4,5-b]pyridin-7-yloxy)methyl)-4-chlorophenyl)(2-(hydroxymethyl)pyrrolidin-1-yl)methanone] |
| 0.001 to 0.1 µM | N#Cc1cc(-c2ccc(CN)nc2)ccc1COc1cc(N)nc2[nH]nnc12 [Example 328, 2-(((5-amino-3H-[1,2,3]triazolo[4,5-b]pyridin-7-yl)oxy)methyl)-5-(6-(aminomethyl)pyridin-3-yl)benzonitrile] |
| 0.001 to 0.1 µM | Nc1cc(OCc2ccc(-c3cccnc3)cc2OC(F)(F)F)c2nn[nH]c2n1 [Example 285, 7-((4-(Pyridin-3-yl)-2-(trifluoromethoxy)benzyl)oxy)-3H-[1,2,3]triazolo[4,5-b]pyridin-5-amine] |
| 0.001 to 0.1 µM | Nc1cc(OCc2cc(OC(F)F)ccc2F)c2nn[nH]c2n1 [Example 32, 7-(5-(Difluoromethoxy)-2-fluorobenzyloxy)-3H-[1,2,3]triazolo[4,5-b]pyridin-5-amine] |
| 0.101 to 0.999 µM | Cc1cn(-c2ccc(COc3cc(N)nc4[nH]nnc34)c(C#N)c2)cn1 [Example 276, 2-(((5-amino-3H-[1,2,3]triazolo[4,5-b]pyridin-7-yl)oxy)methyl)-5-(4-methyl-1H-imidazol-1-yl)benzonitrile] |
| 0.001 to 0.1 µM | Cc1nc(-c2ccc(COc3cc(N)nc4[nH]nnc34)c(F)c2)no1 [Example 251, 7-((2-fluoro-4-(5-methyl-1,2,4-oxadiazol-3-yl)benzyl)oxy)-3H-[1,2,3]triazolo[4,5-b] pyridin-5-amine] |
| 0.001 to 0.1 µM | Nc1cc(OCc2cccc(-n3cnc(C(F)F)n3)c2)c2nn[nH]c2n1 [Example 45, 7-(3-(3-(Difluoromethyl)-1H-1,2,4-triazol-1-yl)benzyloxy)-3H-[1,2,3]triazolo[4,5-b]pyridin-5-amine] |
| 0.001 to 0.1 µM | COc1ccc(-n2cncn2)cc1COc1cc(N)nc2[nH]nnc12 [Example 83, 7-(2-Methoxy-5-(1H-1,2,4-triazol-1-yl)benzyloxy)-3H-[1,2,3]triazolo[4,5-b]pyridin-5-amine] |
| 0.101 to 0.999 µM | CN(CC(N)=O)C(=O)c1ccc(Cl)c(COc2cc(N)nc3[nH]nnc23)c1 [Example 189, N-(2-amino-2-oxoethyl)-3-((5-amino-3H-[1,2,3]triazolo[4,5-b]pyridin-7-yloxy)methyl)-4-chloro-N-methylbenzamide] |
| 0.101 to 0.999 µM | NC(=O)c1cccc(COc2cc(N)nc3[nH]nnc23)c1 [Example 56, 3-((5-Amino-3H-[1,2,3]triazolo[4,5-b]pyridin-7-yloxy)methyl)benzamide] |
| 0.001 to 0.1 µM | COC(=O)c1cccc(COc2cc(N)nc3[nH]nnc23)c1 [Example 22, Methyl 3-((5-amino-3H-[1,2,3]triazolo[4,5-b]pyridin-7-yloxy)methyl)benzoate] |
| 0.001 to 0.1 µM | N#Cc1ccc(OC(F)F)cc1COc1cc(N)nc2[nH]nnc12 [Example 351, 2-(((5-amino-3H-[1,2,3]triazolo[4,5-b]pyridin-7-yl)oxy)methyl)-4-(difluoromethoxy)benzonitrile] |
